A word on the logP: it is the decadic logarithm of the partition coefficient of the neutral form, usually between octanol and water. For orientation: logD means the decadic logarithm of the distribution of all forms, ionised or not, between an organic phase and buffer at a given pH. Higher therefore signals higher lipophilicity.

A short description of series [1]: method code SF, from DOI: 10.1016/j.ejps.2005.05.001, PMID: 15955679.

Turning to `N#Cc1ccc(-c2ccccn2)[nH]c1=O`, the logP came to 0.3. For `CCOC(=O)c1cc(C#N)c(=O)[nH]c1C`, the logP came out at 0.65.

For the compound `O=c1[nH]c2c(cc1S(=O)(=O)c1ccccc1)CCCC2`, the logP in series [1] stood at 1.76.

In the case of `CC(=O)c1ccc(=O)[nH]c1C`, the logD in series [1] (pH 7.4) was -0.3. As for `N#Cc1ccc(-c2ccncc2)[nH]c1=O`, the logP came out at 0.02. Still for that read-out and setting: the value for `N#Cc1ccc(-c2cccnc2)[nH]c1=O` was 0.05. Take `CC(=O)c1ccc(-c2ccccc2)[nH]c1=O`: the logP in series [1] came out at 1.74.

With `Cc1ccc(C#N)c(=O)[nH]1`, the logP was -0.13. Compound `COC(=O)c1cc(C(C)=O)c(C)[nH]c1=O` displayed a logP of -0.09. In the case of `Cc1[nH]c(=O)c(C#N)cc1C(=O)O`, the logP stood at 0.15. As to `O=C(c1ccccc1)c1cc2c([nH]c1=O)CCCC2`, the logP in series [1] was found to be 2.1. `Cc1[nH]c(=O)c(C#N)cc1C(=O)OCC(C)C` had a logP of 1.78. On the same count and under the same terms, the value for `CC(=O)c1cc(C(=O)O)c(=O)[nH]c1C` was -0.04.

Source of the values: the SangsterLogP compilation.
